# Experiments:
# Assay type in all cases: cell-based
# SNB-75 = tested on: SNB-75
# RPMI-8226 = tested on: RPMI-8226
# U251 = tested on: U251
# HCT-116 = tested on: HCT-116
# SK-MEL-5 = tested on: SK-MEL-5
# SK-OV-3 = tested on: SK-OV-3
# ACHN = tested on: ACHN
# HL-60(TB) = tested on: HL-60(TB)
# MDA-MB-231/ATCC = tested on: MDA-MB-231/ATCC
# MOLT-4 = tested on: MOLT-4
# DU-145 = tested on: DU-145
# T-47D = details: Breast cancer; 10^−5 molar; 48 hours; SRB
# 60 cancer cell lines = experiment: NCI 60-cell screen, SRB, whole panel (mean, delta, range)
# CCRF-CEM = tested on: CCRF-CEM
# KM12 = experiment: cells
# NCI-H23 = details: Non-small cell lung cancer; 10^−5 molar; 48 hours; SRB
# BT-549 = tested on: BT-549
# COLO 205 = tested on: COLO 205
# NCI-H460 = tested on: NCI-H460
# NCI-H522 = tested on: NCI-H522
# [1] = CNS cancer, 10^−5 molar, 48 hours, SRB
# [2] = Homo sapiens, SNB-75, five dose
# [3] = Leukemia, 10^−5 molar, 48 hours, SRB
# [4] = Homo sapiens, U-251, U251, five dose
# [5] = Colon cancer, 10^−5 molar, 48 hours, SRB
# [6] = Homo sapiens, HCT-116, five dose
# [7] = Breast cancer, 10^−5 molar, 48 hours, SRB
# [8] = Homo sapiens, COLO 205, five dose
# [9] = Homo sapiens, NCI-H460, five dose
# [10] = Non-small cell lung cancer, 10^−5 molar, 48 hours, SRB
# [11] = Homo sapiens, NCI-H522, five dose
smiles,measurement,setting,value
"CCNc1nc2ccccc2c2c(=O)c3cc(Cl)ccc3sc12 [Compound N2, 10-Chloro-6-ethylamino-12H-thiochromeno[2,3-c]quinolin-12-one]",Growth percent SNB-75,SNB-75; [1],12.12%
same,GI50,SNB-75; [2],4.96 µM
same,LC50,SNB-75; [2],60.2 µM
same,TGI,"SNB-75; SNB-75, five dose",22.00 µM
same,GI50,"RPMI-8226; Homo sapiens, RPMI-8226, five dose",> 100 µM
same,CC50,"RPMI-8226; Homo sapiens, RPMI-8226, five dose, read-out: LC50 (the source's name)",> 100 µM
same,Growth percent RPMI-8226,RPMI-8226; [3],79.66%
same,TGI,"RPMI-8226; RPMI-8226, five dose",>100 µM
same,Growth percent U251,U251; [1],76.58%
same,GI50,U251; [4],16.9 µM
same,LC50,U251; [4],> 100 µM
same,TGI,"U251; U251, five dose",67.90 µM
same,Growth percent HCT-116,HCT-116; [5],48.13%
same,TGI,"HCT-116; HCT-116, five dose",>100 µM
same,GI50,HCT-116; [6],6.31 µM
same,LC50 (concentration killing 50% of cells),HCT-116; [6],> 100 µM
same,LC50,"SK-MEL-5; Homo sapiens, SK-MEL-5, five dose",> 100 µM
same,Growth percent SK-MEL-5,"SK-MEL-5; Melanoma, 10^−5 molar, 48 hours, SRB",73.99%
same,TGI,"SK-MEL-5; SK-MEL-5, five dose",>100 µM
same,GI50,"SK-OV-3; Homo sapiens, SK-OV-3, five dose",11.1 µM
same,CC50,"SK-OV-3; Homo sapiens, SK-OV-3, five dose, read-out: LC50 (the source's name)",> 100 µM
same,Growth percent SK-OV-3,"SK-OV-3; Ovarian cancer, 10^−5 molar, 48 hours, SRB",28.90%
same,TGI,"SK-OV-3; SK-OV-3, five dose",35.20 µM
same,TGI,"ACHN; ACHN, five dose",>100 µM
same,GI50,"ACHN; Homo sapiens, ACHN, five dose",8.66 µM
same,CC50,"ACHN; Homo sapiens, ACHN, five dose, read-out: LC50 (the source's name)",> 100 µM
same,Growth percent ACHN,"ACHN; Renal cancer, 10^−5 molar, 48 hours, SRB",43.77%
same,TGI,"HL-60(TB); HL-60(TB), five dose",>100 µM
same,GI50,"HL-60(TB); Homo sapiens, HL-60(TB), five dose",> 100 µM
same,CC50,"HL-60(TB); Homo sapiens, HL-60(TB), five dose, read-out: LC50 (the source's name)",> 100 µM
same,Growth percent HL-60(TB),HL-60(TB); [3],103.33%
same,Growth percent MDA-MB-231/ATCC,MDA-MB-231/ATCC; [7],48.66%
same,GI50,"MDA-MB-231/ATCC; Homo sapiens, MDA-MB-231/ATCC, five dose",10.1 µM
same,CC50,"MDA-MB-231/ATCC; Homo sapiens, MDA-MB-231/ATCC, five dose, read-out: LC50 (the source's name)",> 100 µM
same,TGI,"MDA-MB-231/ATCC; MDA-MB-231/ATCC, five dose",65.5 µM
same,GI50,"MOLT-4; Homo sapiens, MOLT-4, five dose",> 100 µM
same,CC50,"MOLT-4; Homo sapiens, MOLT-4, five dose, read-out: LC50 (the source's name)",> 100 µM
same,Growth percent MOLT-4,MOLT-4; [3],92.27%
same,TGI,"MOLT-4; MOLT-4, five dose",>100 µM
same,TGI,"DU-145; DU-145, five dose",>100 µM
same,GI50,"DU-145; Homo sapiens, DU-145, five dose",> 100 µM
same,CC50,"DU-145; Homo sapiens, DU-145, five dose, read-out: LC50 (the source's name)",> 100 µM
same,Growth percent DU-145,"DU-145; Prostate cancer, 10^−5 molar, 48 hours, SRB",87.67%
same,Growth percent T-47D,T-47D,38.28%
same,GI50,"60 cancer cell lines; 60 cell, mean over panel, five dose",28.8 µM
same,CC50,"60 cancer cell lines; 60 cell, mean over panel, five dose, read-out: LC50, Mean",100 µM
same,"Growth percent, Delta","60 cancer cell lines; delta over the cell panel, 10^−5 molar, 48 hours, SRB",66.04%
same,"TGI, Mean","60 cancer cell lines; mean over panel, five dose",83.18 µM
same,"Growth percent, Mean","60 cancer cell lines; mean over the cell panel, 10^−5 molar, 48 hours, SRB",65.97%
same,"Growth percent, Range","60 cancer cell lines; range over the cell panel, 10^−5 molar, 48 hours, SRB",103.40%
same,TGI,"CCRF-CEM; CCRF-CEM, five dose",>100 µM
same,GI50,"CCRF-CEM; Homo sapiens, CCRF-CEM, five dose",> 100 µM
same,CC50,"CCRF-CEM; Homo sapiens, CCRF-CEM, five dose, read-out: LC50 (the source's name)",> 100 µM
same,Growth percent CCRF-CEM,CCRF-CEM; [3],88.62%
same,Growth percent KM12,KM12; [5],85.79%
same,GI50,"KM12; Homo sapiens, KM12, five dose",> 100 µM
same,LC50,"KM12; Homo sapiens, KM12, five dose",> 100 µM
same,TGI,"KM12; KM12, five dose",>100 µM
same,Growth percent NCI-H23,NCI-H23,86.29%
same,TGI,"BT-549; BT-549, five dose",>100 µM
same,Growth percent BT-549,BT-549; [7],100.10%
same,GI50,"BT-549; Homo sapiens, BT-549, five dose",9.87 µM
same,CC50,"BT-549; Homo sapiens, BT-549, five dose, read-out: LC50 (the source's name)",> 100 µM
same,TGI,"COLO 205; COLO 205, five dose",>100 µM
same,Growth percent COLO 205,COLO 205; [5],82.36%
same,GI50,COLO 205; [8],> 100 µM
same,LC50,COLO 205; [8],> 100 µM
same,GI50,NCI-H460; [9],> 100 µM
same,LC50,NCI-H460; [9],> 100 µM
same,TGI,"NCI-H460; NCI-H460, five dose",>100 µM
same,Growth percent NCI-H460,NCI-H460; [10],53.33%
same,GI50,NCI-H522; [11],24.8 µM
same,LC50 (concentration causing 50% net cell kill),NCI-H522; [11],> 100 µM
same,TGI,"NCI-H522; NCI-H522, five dose",>100 µM
same,Growth percent NCI-H522,NCI-H522; [10],80.75%

# Reference: US8927717B1, “Thiochromeno[2,3-c]quinolin-12-one derivatives, preparation method and application thereof” (National Defense Medical Center, priority 2014, dated 2015)
